Patent US20080306076A1, “MODULATION OF CHEMOSENSORY RECEPTORS AND LIGANDS ASSOCIATED THEREWITH” (SENOMYX, INC., priority 2007, published 2008)

Molecular target: T1, hT1R1 S306A (Homo sapiens, UniProt Q7RTX1, S306A)
T1 construct: expressed in transfected cells; host or cells: HEK293, transient transfection
T1 sequence (Q7RTX1 21-841 S306A): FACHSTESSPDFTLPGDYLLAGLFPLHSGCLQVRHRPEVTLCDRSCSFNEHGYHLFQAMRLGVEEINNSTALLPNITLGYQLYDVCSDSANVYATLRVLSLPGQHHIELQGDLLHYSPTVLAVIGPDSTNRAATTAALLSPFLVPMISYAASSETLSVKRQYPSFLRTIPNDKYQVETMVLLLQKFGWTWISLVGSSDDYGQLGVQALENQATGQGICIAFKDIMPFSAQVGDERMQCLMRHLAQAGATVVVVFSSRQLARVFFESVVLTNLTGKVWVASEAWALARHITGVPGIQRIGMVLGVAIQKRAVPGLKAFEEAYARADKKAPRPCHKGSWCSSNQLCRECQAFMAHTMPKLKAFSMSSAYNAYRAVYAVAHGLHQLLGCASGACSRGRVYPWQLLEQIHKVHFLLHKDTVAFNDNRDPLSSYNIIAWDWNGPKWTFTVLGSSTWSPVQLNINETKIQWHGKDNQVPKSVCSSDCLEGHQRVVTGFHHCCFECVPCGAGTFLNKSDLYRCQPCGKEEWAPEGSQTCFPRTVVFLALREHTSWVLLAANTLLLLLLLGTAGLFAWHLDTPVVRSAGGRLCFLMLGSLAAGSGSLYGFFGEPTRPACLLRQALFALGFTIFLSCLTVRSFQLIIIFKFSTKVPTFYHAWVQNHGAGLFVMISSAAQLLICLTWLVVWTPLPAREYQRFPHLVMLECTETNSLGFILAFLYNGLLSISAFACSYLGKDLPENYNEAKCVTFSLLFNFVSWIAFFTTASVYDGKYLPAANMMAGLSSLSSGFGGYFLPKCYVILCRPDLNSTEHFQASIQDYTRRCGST
T1 sequence (Q923K1 21-858 partner): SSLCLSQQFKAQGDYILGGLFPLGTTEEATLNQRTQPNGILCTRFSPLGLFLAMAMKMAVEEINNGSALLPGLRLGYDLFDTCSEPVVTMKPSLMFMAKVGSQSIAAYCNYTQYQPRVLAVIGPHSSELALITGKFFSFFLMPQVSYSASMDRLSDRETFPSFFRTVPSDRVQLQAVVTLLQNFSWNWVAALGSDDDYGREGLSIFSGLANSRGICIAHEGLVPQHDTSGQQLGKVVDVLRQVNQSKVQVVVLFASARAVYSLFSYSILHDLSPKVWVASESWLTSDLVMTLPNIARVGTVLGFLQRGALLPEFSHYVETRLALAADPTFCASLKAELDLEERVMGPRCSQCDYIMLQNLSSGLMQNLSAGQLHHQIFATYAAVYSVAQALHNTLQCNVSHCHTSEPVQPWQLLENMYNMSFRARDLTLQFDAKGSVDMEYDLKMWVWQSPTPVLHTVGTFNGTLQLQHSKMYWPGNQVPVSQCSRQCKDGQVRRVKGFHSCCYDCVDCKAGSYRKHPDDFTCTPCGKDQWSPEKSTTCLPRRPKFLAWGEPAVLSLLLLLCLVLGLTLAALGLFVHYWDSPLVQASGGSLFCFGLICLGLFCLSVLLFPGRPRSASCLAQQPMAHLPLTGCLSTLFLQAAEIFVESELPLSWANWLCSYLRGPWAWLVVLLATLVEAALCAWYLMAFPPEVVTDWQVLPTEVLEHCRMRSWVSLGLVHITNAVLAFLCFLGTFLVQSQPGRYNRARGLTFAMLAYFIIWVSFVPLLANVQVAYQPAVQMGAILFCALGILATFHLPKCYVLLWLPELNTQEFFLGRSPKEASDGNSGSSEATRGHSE
Assay: Mutagenesis study, hT1R1 mutant S306A
Type: cell-based
Settings: S306 mutation
Text: In order to further define the interaction sites of umami stimuli, we performed site-directed mutagenesis on human T1R1 VFT. The mutagenesis was done using the routine PCR-based method. […] were transiently transfected into HEK293 cell together with the rat T1R3 wild type cDNA, and the transfected cells were characterized using an automated FLIPR machine or a calcium imaging system as described in our previous patent applications.

Which “enhancement activity of GMP” value does the source give for `Nc1nc2c(ncn2[C@@H]2O[C@H](COP(=O)(O)O)[C@@H](O)[C@H]2O)c(=O)[nH]1` [GMP, guanosine-5′-monophosphate] here?
The value was “similarly affected”.
